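Values below derive from 48-hour exposures of cells grown in 96-well plates, with endpoints linearly interpolated between the two concentrations bracketing the appropriate inhibition level. GI50 = concentration required for 50% inhibition of growth. TGI: total growth inhibition.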
Legend:
Test in all cases: DTP human tumour cell line panel, 48 h
M14 melanoma = tested on: M14 melanoma
SNB-75 CNS = tested on: SNB-75 CNS
OVCAR-5 ovarian = tested on: OVCAR-5 ovarian
OVCAR-8 ovarian = tested on: OVCAR-8 ovarian
MDA-MB-231 breast = tested on: MDA-MB-231 breast
PC-3 prostate = tested on: PC-3 prostate
SN12C renal = tested on: SN12C renal
NCI-H522 lung = tested on: NCI-H522 lung
U251 CNS = tested on: U251 CNS
HCT-15 colon = tested on: HCT-15 colon
SNB-19 CNS = tested on: SNB-19 CNS
HL-60(TB) leukemia = tested on: HL-60(TB) leukemia
BT-549 breast = tested on: BT-549 breast
K-562 leukemia = tested on: K-562 leukemia
UACC-62 melanoma = tested on: UACC-62 melanoma
HCC-2998 colon = tested on: HCC-2998 colon
SF-539 CNS = tested on: SF-539 CNS
HS 578T breast = tested on: HS 578T breast
HCT-116 colon = tested on: HCT-116 colon
MALME-3M melanoma = tested on: MALME-3M melanoma
A498 renal = tested on: A498 renal
SR leukemia = tested on: SR leukemia
MOLT-4 leukemia = tested on: MOLT-4 leukemia
RXF 393 renal = tested on: RXF 393 renal
MCF7 breast = tested on: MCF7 breast
UACC-257 melanoma = tested on: UACC-257 melanoma
HOP-92 NSCLC = tested on: HOP-92 NSCLC

`O=C(O)c1ccccc1Nc1ccc2nnc(-c3ccncc3)n2n1` gave a GI50 (M14 melanoma) of 7.03 µM, a TGI (M14 melanoma) of 40.9 µM and a GI50 (SNB-75 CNS) of 12.2 µM. It also gave a TGI (SNB-75 CNS) of 25 µM, a GI50 (OVCAR-5 ovarian) of 17.4 µM and a TGI (OVCAR-5 ovarian) of 79.3 µM. For the same compound, the GI50 (OVCAR-8 ovarian) was 8.1 µM, the TGI (OVCAR-8 ovarian) was 41.7 µM and the GI50 (MDA-MB-231 breast) was 5.27 µM. For the same compound, the TGI (MDA-MB-231 breast) was 24.2 µM, the GI50 (PC-3 prostate) was 13.4 µM and the TGI (PC-3 prostate) was 31.9 µM. For the same compound, the GI50 (SN12C renal) was 3.56 µM, the TGI (SN12C renal) was 17.1 µM and the GI50 (NCI-H522 lung) was 10.4 µM. The TGI (NCI-H522 lung) was 22.8 µM, the GI50 (U251 CNS) was 13.3 µM and the TGI (U251 CNS) was 28 µM. The GI50 (HCT-15 colon) was 6.88 µM, the TGI (HCT-15 colon) was 66.3 µM and the GI50 (SNB-19 CNS) was 14.2 µM. The TGI (SNB-19 CNS) was 40.8 µM, the GI50 (HL-60(TB) leukemia) was 32.5 µM and the TGI (HL-60(TB) leukemia) was > 100 µM. The GI50 (BT-549 breast) was 2.59 µM, the TGI (BT-549 breast) was 8.33 µM and the GI50 (K-562 leukemia) was 15.1 µM. The TGI (K-562 leukemia) was > 100 µM, the GI50 (UACC-62 melanoma) was 5.18 µM and the TGI (UACC-62 melanoma) was 19.5 µM. It also gave a GI50 (HCC-2998 colon) of 23.5 µM, a TGI (HCC-2998 colon) of 52 µM and a GI50 (SF-539 CNS) of 14.6 µM. The TGI (SF-539 CNS) was 55.8 µM, the GI50 (HS 578T breast) was 18.3 µM and the TGI (HS 578T breast) was 53.9 µM. The GI50 (HCT-116 colon) was 4.09 µM, the TGI (HCT-116 colon) was 21 µM and the GI50 (MALME-3M melanoma) was 7.97 µM. It also gave a TGI (MALME-3M melanoma) of 26.3 µM, a GI50 (A498 renal) of 15.5 µM and a TGI (A498 renal) of 29.5 µM. For the same compound, the GI50 (SR leukemia) was 5.23 µM, the TGI (SR leukemia) was > 100 µM and the GI50 (MOLT-4 leukemia) was 6.99 µM. The TGI (MOLT-4 leukemia) was > 100 µM, the GI50 (RXF 393 renal) was 3.18 µM and the TGI (RXF 393 renal) was 9.98 µM. For the same compound, the GI50 (MCF7 breast) was 2.85 µM, the TGI (MCF7 breast) was 24.6 µM and the GI50 (UACC-257 melanoma) was 10.6 µM. It also gave a TGI (UACC-257 melanoma) of 33.6 µM, a GI50 (HOP-92 NSCLC) of 16.9 µM and a TGI (HOP-92 NSCLC) of 35.8 µM.
